Experiment [1] deals with T1, full-length receptor protein expressed CHO cells (CHO-19P2); human pituitary receptor protein (hGR3) (Homo sapiens, UniProt P49683).
T1 construct: to construct a full-length receptor protein expression plasmid pAKKO-19P2; expressed in transfected cells; host or cells: CHO dhfr- cells transfected with pAKKO-19P2 (CHO-19P2; clone CHO-19P2-9)
T1 sequence (P49683 1-370): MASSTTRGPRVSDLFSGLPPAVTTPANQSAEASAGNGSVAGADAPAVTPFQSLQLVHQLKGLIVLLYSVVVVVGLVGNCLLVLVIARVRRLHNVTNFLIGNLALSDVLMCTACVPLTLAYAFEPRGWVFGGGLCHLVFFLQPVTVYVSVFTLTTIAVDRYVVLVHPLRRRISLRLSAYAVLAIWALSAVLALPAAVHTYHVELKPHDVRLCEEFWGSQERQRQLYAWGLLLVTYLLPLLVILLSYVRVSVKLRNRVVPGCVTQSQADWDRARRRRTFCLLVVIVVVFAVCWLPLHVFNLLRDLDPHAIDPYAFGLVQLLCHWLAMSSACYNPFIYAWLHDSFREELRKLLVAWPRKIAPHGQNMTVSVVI
The experiment can be described thus: release of arachidonic acid metabolites from CHO-19P2 cells. Format: cell-based. As to conditions: amount of [3H]arachidonic acid metabolites, 10^−12 M-10^−6 M in 0.05% BSA-HBSS. The procedure: (§1) The full-length receptor protein-expressed CHO cells and mock CHO cells were seeded in a 24-well plate, 0.5×10^5 cells/well, and cultured for 24 hours. Then, [^3H] arachidonic acid was added at a final concentration of 0.25 μCi/well. Sixteen (16) hours after addition of [^3H] arachidonic acid, the cells were rinsed with 0.05% BSA-HBSS and the above-mentioned crude peptide fraction was added, 400 μl/well. The mixture was incubated at 37° C. for 30 minutes and a 300 μl portion of the reaction mixture (400 μl) was added to 4 ml of a scintillator and the amount of [^3H] arachidonic acid metabolite released into the reaction mixture was determined with a scintillation counter.
The activity of the peptide (19P2-L31) synthesized in Example 21 to specifically release arachidonic acid metabolites from CHO-19P2 cells was assayed in the same manner as Example 11. The synthetic peptide was dissolved in degassed dH20 at a concentration of 10^−3M and diluted with 0.05% BSA-HBSS and the activity to promote release of arachidonic acid metabolites from CHO-19P2 cells at each concentration was assayed using the amount of [^3H]arachidonic acid metabolites as the indicator.
The activity of the synthetic equivalent (19P2-L20) of natural peptide P-2 as synthesized in Example 23 to specifically promote release of arachidonic acid metabolites from CHO-19P2 cells was determined as in Example 11. Thus, the synthetic peptide was dissolved in degassed dH2O at a final concentration of 10^−3M and this solution was serially diluted with 0.05% BAS-HBSS. The activity to specifically promote release of arachidonic acid metabolites from CHO-19P2 cells at each concentration was assayed using the amount of [^3H]arachidonic acid metabolites as the indicator.

The target in experiment [2] is T2, UHR-1 expressed in CHO cells (CHO-UHR1) (Rattus norvegicus, UniProt Q64121, L289V).
T2 construct: expressed in transfected cells; host or cells: CHO dhfr- cells transfected with pAKKO-UHR-1
T2 sequence (Q64121 1-370 L289V): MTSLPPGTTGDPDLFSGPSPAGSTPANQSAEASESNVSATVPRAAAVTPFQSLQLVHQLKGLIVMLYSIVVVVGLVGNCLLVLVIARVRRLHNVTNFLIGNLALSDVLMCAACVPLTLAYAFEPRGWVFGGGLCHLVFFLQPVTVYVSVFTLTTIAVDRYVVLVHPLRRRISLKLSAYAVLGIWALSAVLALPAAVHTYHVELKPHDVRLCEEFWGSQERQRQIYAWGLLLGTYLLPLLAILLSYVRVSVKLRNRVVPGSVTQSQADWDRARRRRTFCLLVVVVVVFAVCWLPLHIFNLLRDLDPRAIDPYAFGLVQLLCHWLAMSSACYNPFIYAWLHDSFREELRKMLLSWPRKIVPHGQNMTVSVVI
In words: release of arachidonic acid metabolites from CHO-UHR1 cells. The experiment is classed as cell-based. As to conditions: CHO cells expressing rat homolog UHR1; duplicate. As for the experimental part:
as §1
Same as described in Example 11, the release activity of arachidonic acid metabolite was measured on CHO-19P2-9 and CHO-UHR1 and mock CHO.

Experiment [3] can be described thus: reserpine-induced hypothermia in mice. Format: in vivo, ICR male mice. As to conditions: lateral ventricle. The procedure:
The mature ICR male mice (weight at operation: about 35 g) were anesthetized by administration of pentobarbital (50 mg/kg, i.p.), and then fixed on stereotaxic apparatus. The skull of a said mouse was exposed, then a hole was made by dental drill for guide-cannulization into the left lateral ventricle. The tip of a stainless-steel guide-cannula (24 G, length: 5 mm) for drug injection to lateral ventricle, was inserted to the position of AP: +0.6 mm (from bregma), L: left 1 mm and H: −1 mm (from dura matter). The guide-cannula was fixed onto the skull with adhesive. The cannula-implanted mice were housed as described above and were used for measurements of body temperature at least 3 days after the operation. Reserpine (Apoplon; Daiichi Pharmaceutical) was administered to mice at a dose of 3 mg/kg, s.c., and after 15 hours, each mouse was placed in a cage for the measurement. Then a stainless-steel micro-injection cannula (30 G, length: 6 mm) was inserted into the guide-cannula. The micro-injection cannula was connected to a microsyringe pump with Teflon tube, and injection of PBS or a peptide dissolved in PBS lasted for 2 minutes at a speed of 1 μl/min. The micro-injection cannula was withdrawn after over a period of 2 minutes from end of injection, than the temperature in rectum was measured.
The results are expressed as a mean±S.E.M. Student's t test was used to determine the significance of differences between values from the mice treated with a peptide and the PBS-injected controls. For the purpose of this analysis, p<0.05 was assumed to be the minimal level of significance.

“Also recorded” adds a separate entry of the source. Where no end group is shown, it is not given here.

As to “Ser-Arg-Ala-His-Gln-His-Ser-Met-Glu-Ile-Arg-Thr-Pro-Asp-Ile-Asn-Pro-Ala-Trp-Tyr-Ala-Gly-Arg-Gly-Ile-Arg-Pro-Val-Gly-Arg-Phe-NH2 (SRAHQHSMEIRTPDINPAWYAGRGIRPVGRF-NH2) [19P2-L31, synthetic ligand polypeptide]”, the “arachidonic acid metabolite-releasing activity” value in experiment [1] is reported as “concentration-dependent arachidonic acid metabolite-releasing activity was detected over the range of 10^−12M-10^−6M; also recorded: found in a concentration-dependent manner”. In experiment [2], the “release activity of arachidonic acid metabolite” value is on record as “detected same as CHO-19P2-9”. The “temperature variation versus PBS-injected control” value in experiment [3] (1 nmol, reserpine-treated mice) is on record as “no statistically significant difference”. Moreover, the “body temperature lowered by reserpine” value in experiment [3] (10 nmol, mice, 15 hours after reserpine 3 mg/kg s.c., versus PBS) is “increased significantly”. Further, in experiment [3] (10 nmol, reserpine-treated mice), the “time of maximum increase of body temperature after administration” value is given as 45 min.

(Values after patent US6794491B1, “Polypeptides, their production and use” (Takeda Chemical Industries, Ltd., priority 1995, dated 2004).)
